Where a name gives a salt, the structure may show the parent alone.
Assays:
Assay type in all cases: cell-based
[1] = target: Mer (phospho-Mer, MERTK-transfected 293A cells) (Homo sapiens (Human), UniProt Q12866); assay: Mer autophosphorylation ELISA in transient transfected 293A cells (Example H); details: cellular activity; Mer autophosphorylation ELISA in transient transfected 293A cells
How it was run: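 IC50 from phospho-Mer ELISA of MERTK-transfected 293A cell lysates after 1 h treatment with serially diluted compound in serum-free medium.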

[2] = target: KDR (phospho-KDR, VEGF165-stimulated HUVEC cells) (Homo sapiens (Human), UniProt P35968); assay: KDR autophosphorylation ELISA in HUVEC cells (Example G); details: cellular activity; KDR autophosphorylation ELISA in HUVEC cells
How it was run: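 First, endothelial cells were cultured a day, then kept without serum for another day. Next came 1 h with serially diluted compound, a brief 5 min VEGF165 stimulus (100 ng/mL), rapid lysis, and ELISA detection of receptor phosphorylation relative to stimulated and non-stimulated controls.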

[3] = target: Met (phospho-Met, HGF-stimulated PC-3 prostate cancer cells) (Homo sapiens (Human), UniProt P08581); assay: Met autophosphorylation ELISA in PC-3 cells (Example F); details: cellular activity; Met autophosphorylation ELISA in PC-3 cells; read-out: c-Met IC50
How it was run: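 IC50 values derive from a 4-parameter logistic fit of phospho-Met (panTyr) sandwich ELISA signals in PC-3 lysates, scaled between DMSO and reference-inhibitor wells. Cells, starved 3 h in serum-free medium, had 1 h compound exposure (8 doses, 0.3% DMSO) before 10 min stimulation with 100 ng/mL HGF.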

Sequence of Met (phospho-Met, HGF-stimulated PC-3 prostate cancer cells) (P08581 25-1390): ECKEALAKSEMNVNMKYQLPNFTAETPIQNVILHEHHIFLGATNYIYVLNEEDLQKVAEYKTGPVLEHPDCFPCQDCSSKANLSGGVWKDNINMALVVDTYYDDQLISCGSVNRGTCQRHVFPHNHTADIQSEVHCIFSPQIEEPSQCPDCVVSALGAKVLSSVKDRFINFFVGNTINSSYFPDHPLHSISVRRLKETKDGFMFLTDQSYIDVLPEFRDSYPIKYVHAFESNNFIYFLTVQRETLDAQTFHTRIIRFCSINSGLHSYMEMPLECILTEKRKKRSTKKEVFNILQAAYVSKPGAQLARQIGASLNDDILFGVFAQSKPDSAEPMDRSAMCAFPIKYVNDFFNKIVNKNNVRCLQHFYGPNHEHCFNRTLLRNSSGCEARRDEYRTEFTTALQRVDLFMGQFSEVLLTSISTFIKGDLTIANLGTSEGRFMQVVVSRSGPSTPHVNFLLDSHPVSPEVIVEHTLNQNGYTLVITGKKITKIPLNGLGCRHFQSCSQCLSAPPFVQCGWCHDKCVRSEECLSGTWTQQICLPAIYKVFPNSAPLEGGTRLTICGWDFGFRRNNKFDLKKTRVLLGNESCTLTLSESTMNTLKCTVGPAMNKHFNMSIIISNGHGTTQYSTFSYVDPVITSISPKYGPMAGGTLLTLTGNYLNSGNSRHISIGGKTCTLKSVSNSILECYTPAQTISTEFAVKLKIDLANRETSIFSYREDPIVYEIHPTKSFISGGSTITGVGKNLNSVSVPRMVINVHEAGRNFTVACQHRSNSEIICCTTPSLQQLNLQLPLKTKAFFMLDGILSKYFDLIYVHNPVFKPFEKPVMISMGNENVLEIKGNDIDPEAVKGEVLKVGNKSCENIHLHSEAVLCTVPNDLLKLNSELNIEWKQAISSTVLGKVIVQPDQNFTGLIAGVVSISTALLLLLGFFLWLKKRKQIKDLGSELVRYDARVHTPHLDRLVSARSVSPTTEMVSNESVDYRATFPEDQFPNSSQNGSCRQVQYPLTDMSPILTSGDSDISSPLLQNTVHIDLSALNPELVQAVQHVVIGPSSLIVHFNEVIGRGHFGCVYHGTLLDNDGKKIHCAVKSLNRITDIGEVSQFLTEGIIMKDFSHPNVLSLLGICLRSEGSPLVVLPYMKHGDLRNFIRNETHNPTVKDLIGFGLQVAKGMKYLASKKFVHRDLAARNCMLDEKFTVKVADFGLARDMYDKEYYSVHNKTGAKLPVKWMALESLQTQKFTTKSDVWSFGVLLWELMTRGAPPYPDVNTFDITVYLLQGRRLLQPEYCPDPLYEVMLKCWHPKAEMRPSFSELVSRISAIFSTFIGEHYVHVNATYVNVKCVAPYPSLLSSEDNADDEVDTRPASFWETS
Sequence of KDR (phospho-KDR, VEGF165-stimulated HUVEC cells) (P35968 20-1356): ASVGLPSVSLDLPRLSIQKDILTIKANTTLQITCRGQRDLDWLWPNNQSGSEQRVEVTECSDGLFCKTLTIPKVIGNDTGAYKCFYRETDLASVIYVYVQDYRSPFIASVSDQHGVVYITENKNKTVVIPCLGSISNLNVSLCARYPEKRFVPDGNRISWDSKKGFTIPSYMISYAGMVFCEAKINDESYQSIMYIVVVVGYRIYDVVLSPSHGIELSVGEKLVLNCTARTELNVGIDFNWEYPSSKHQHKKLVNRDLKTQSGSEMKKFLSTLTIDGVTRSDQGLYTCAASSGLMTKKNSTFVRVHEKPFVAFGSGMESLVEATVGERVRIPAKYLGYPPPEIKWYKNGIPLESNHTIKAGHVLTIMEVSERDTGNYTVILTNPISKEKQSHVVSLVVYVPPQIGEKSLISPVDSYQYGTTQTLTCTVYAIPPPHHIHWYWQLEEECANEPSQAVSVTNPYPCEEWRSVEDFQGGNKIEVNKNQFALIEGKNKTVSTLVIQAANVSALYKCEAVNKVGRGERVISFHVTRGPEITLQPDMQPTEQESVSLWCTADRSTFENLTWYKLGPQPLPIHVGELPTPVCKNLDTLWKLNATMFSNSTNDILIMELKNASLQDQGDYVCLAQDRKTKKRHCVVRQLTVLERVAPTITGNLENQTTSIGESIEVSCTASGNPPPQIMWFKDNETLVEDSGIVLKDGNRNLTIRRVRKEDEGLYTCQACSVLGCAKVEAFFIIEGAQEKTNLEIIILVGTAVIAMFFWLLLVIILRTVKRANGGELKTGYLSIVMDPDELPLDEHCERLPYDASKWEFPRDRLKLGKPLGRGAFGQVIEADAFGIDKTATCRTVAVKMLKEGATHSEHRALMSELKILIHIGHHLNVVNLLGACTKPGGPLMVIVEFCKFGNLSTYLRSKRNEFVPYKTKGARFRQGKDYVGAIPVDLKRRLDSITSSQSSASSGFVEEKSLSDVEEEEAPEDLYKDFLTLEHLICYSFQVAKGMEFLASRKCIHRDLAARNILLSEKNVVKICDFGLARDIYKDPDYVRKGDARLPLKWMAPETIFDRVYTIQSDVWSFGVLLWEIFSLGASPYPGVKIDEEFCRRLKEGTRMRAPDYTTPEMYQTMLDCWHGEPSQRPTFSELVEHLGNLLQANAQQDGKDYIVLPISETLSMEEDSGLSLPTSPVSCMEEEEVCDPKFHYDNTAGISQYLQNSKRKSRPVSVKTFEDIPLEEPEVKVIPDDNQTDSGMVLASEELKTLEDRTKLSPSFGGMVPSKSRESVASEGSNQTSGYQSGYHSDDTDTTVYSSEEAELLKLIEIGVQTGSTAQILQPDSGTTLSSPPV
Sequence of Mer (phospho-Mer, MERTK-transfected 293A cells) (Q12866 21-999): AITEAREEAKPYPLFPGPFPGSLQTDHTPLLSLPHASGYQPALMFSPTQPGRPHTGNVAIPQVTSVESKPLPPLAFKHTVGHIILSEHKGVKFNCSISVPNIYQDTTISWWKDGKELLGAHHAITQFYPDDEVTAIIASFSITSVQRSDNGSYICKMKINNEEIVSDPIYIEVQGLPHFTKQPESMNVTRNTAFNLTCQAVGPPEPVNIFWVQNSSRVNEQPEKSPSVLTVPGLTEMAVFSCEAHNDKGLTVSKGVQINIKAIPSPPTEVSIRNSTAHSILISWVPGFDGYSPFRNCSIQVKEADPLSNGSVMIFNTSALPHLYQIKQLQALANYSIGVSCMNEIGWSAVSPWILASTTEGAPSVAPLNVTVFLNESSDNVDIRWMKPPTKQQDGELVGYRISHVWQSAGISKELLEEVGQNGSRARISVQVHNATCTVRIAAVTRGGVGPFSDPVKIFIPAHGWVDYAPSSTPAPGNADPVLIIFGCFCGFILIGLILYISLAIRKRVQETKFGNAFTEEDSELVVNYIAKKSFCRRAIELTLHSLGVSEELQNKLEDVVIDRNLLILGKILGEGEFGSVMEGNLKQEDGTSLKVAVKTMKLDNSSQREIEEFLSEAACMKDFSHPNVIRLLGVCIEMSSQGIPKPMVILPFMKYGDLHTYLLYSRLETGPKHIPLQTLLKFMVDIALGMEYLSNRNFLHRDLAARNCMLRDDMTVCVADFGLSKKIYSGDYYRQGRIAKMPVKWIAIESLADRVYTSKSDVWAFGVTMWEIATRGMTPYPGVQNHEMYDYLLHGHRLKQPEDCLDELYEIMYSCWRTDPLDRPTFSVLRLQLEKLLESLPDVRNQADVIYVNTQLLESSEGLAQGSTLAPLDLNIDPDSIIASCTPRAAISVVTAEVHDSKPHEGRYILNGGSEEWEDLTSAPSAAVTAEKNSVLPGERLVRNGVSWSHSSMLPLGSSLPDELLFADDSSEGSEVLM

| Compound | IC50 [1] | IC50 [2] | IC50 [3] |
| --- | --- | --- | --- |
| Cc1ncc(C(=O)Nc2ccc(Oc3ccnc4cc(C(N)=O)cnc34)c(F)c2)c(O)c1-c1ccc(F)cc1 [Compound 577, 8-[2-Fluoro-4-[[5-(4-fluorophenyl)-4-hydroxy-6-methylpyridine-3-carbonyl]amino]phenoxy]-1,5-naphthyridine-3-carboxamide] | 100 to 300 nM | < 100 nM | < 100 nM |
| COc1ccc2nccc(Oc3ccc(NC(=O)c4cnc(C)c(-c5ccc(F)cc5)c4O)cc3F)c2n1 [Compound 172, N-[3-Fluoro-4-[(6-methoxy-1,5-naphthyridin-4-yl)oxy]phenyl]-5-(4-fluorophenyl)-4-hydroxy-6-methylpyridine-3-carboxamide] | < 100 nM | < 100 nM | < 100 nM |
| COc1cnc2c(Oc3ccc(NC(=O)c4cn(OC)cc(-c5ccc(F)cc5)c4=O)cc3F)ccnc2c1 [Compound 128, N-[3-Fluoro-4-[(7-methoxy-1,5-naphthyridin-4-yl)oxy]phenyl]-5-(4-fluorophenyl)-1-methoxy-4-oxopyridine-3-carboxamide] | < 100 nM | < 100 nM | < 100 nM |
| COc1cc2ncnc(Oc3ccc(NC(=O)c4cn(-c5cnn(C)c5)cc(-c5ccc(F)cc5)c4=O)cc3F)c2nc1OC [Compound 637, N-[4-(6,7-dimethoxyprido[3,2-d]pyrimidin-4-yl)oxy-3-fluorophenyl]-5-(4-fluorophenyl)-1-(1-methylpyrazol-4-yl)-4-oxopyridine-3-carboxamide] | < 100 nM | > 300 nM | < 100 nM |
| CCn1cc(C(=O)Nc2ccc(Oc3ccnc4cc(OC)c(OC)nc34)cc2)c(=O)c(-c2ccc(F)cc2)c1C [Compound 168, N-[4-[(6,7-Dimethoxy-1,5-naphthyridin-4-yl)oxy]phenyl]-1-ethyl-5-(4-fluorophenyl)-6-methyl-4-oxopyridine-3-carboxamide] | < 100 nM | 100 to 300 nM | < 100 nM |
| COc1cc2nccc(Oc3ccc(NC(=O)c4cnc(C)c(-c5ccc(F)cc5)c4O)cc3F)c2nc1OC [Compound 28, N-[4-[(6,7-Dimethoxy-1,5-naphthyridin-4-yl)oxy]-3-fluorophenyl]-5-(4-fluorophenyl)-4-hydroxy-6-methylpyridine-3-carboxamide] | < 100 nM | < 100 nM | < 100 nM |
| COCCOc1nc2c(Oc3ccc(NC(=O)c4cnc(C)c(-c5ccc(F)cc5C)c4O)cc3F)ccnc2cc1OC [Compound 144, N-[3-Fluoro-4-[[7-methoxy-6-(2-methoxyethoxy)-1,5-naphthyridin-4-yl]oxy]phenyl]-5-(4-fluoro-2-methylphenyl)-4-hydroxy-6-methylpyridine-3-carboxamide] | < 100 nM | < 100 nM | < 100 nM |
| COc1cc2nccc(Oc3ccc(NC(=O)c4cn(C(C)C)c(C)c(-c5ccc(F)cc5)c4=O)cc3F)c2nc1N [Compound 579, N-[4-[(6-Amino-7-methoxy-1,5-naphthyridin-4-yl)oxy]-3-fluorophenyl]-5-(4-fluorophenyl)-6-methyl-4-oxo-1-propan-2-ylpyridine-3-carboxamide] | < 100 nM | > 300 nM | < 100 nM |
| Cc1nc2c(Oc3ccc(NC(=O)c4cn(C(C)C)c(C)c(-c5ccc(F)cc5)c4=O)cc3F)ccnc2cc1-c1cccnc1 [Compound 620, N-[3-Fluoro-4-[(6-methyl-7-pyridin-3-yl-1,5-naphthyridin-4-yl)oxy]phenyl]-5-(4-fluorophenyl)-6-methyl-4-oxo-1-propan-2-ylpyridine-3-carboxamide] | < 100 nM | > 300 nM | 100 to 300 nM |
| COc1cc2nccc(Oc3ccc(NC(=O)c4cnc(C)c(-c5ccc(F)cc5C)c4O)cc3)c2nc1OC [Compound 174, N-[4-[(6,7-Dimethoxy-1,5-naphthyridin-4-yl)oxy]phenyl]-5-(4-fluoro-2-methylphenyl)-4-hydroxy-6-methylpyridine-3-carboxamide] | < 100 nM | < 100 nM | < 100 nM |
| COc1cc2nccc(Oc3ccc(NC(=O)c4cn(-c5cccnc5)cc(-c5ccc(F)cc5)c4=O)cc3F)c2nc1OC [Compound 125, N-[4-[(6,7-Dimethoxy-1,5-naphthyridin-4-yl)oxy]-3-fluorophenyl]-5-(4-fluorophenyl)-4-oxo-1-pyridin-3-ylpyridine-3-carboxamide] | < 100 nM | > 300 nM | < 100 nM |
| Cc1cc2c(Oc3ccc(NC(=O)c4cnc(C)c(-c5ccc(F)cc5)c4O)cc3F)ccnc2cn1 [Compound 645, N-[3-fluoro-4-[(6-methyl-1,7-naphthyridin-4-yl)oxy]phenyl]-5-(4-fluorophenyl)-4-hydroxy-6-methylpyridine-3-carboxamide] | < 100 nM | < 100 nM | < 100 nM |
| COc1cc2nccc(Oc3ccc(NC(=O)c4cn(-c5cnn(C)c5)c(C)c(-c5ccc(F)cc5)c4=O)cc3F)c2nc1OC [Compound 140, N-[4-[(6,7-Dimethoxy-1,5-naphthyridin-4-yl)oxy]-3-fluorophenyl]-5-(4-fluorophenyl)-6-methyl-1-(1-methylpyrazol-4-yl)-4-oxopyridine-3-carboxamide] | < 100 nM | > 300 nM | < 100 nM |

Now from value to compound:

| IC50 [1] | IC50 [2] | IC50 [3] | Compound |
| --- | --- | --- | --- |
| < 100 nM | > 300 nM | 100 to 300 nM | COc1cc2nccc(Oc3ccc(NC(=O)c4cn(C(C)(C)C)c(C)c(-c5ccc(F)cc5)c4=O)cc3F)c2nc1OC [Compound 139, 1-tert-Butyl-N-[4-[(6,7-dimethoxy-1,5-naphthyridin-4-yl)oxy]-3-fluorophenyl]-5-(4-fluorophenyl)-6-methyl-4-oxopyridine-3-carboxamide] |
| < 100 nM | < 100 nM | < 100 nM | Cc1ncc(C(=O)Nc2ccc(Oc3ccnc4cc(-c5cnn(C(F)F)c5)cnc34)c(F)c2)c(O)c1-c1ccc(F)cc1 [Compound 610, N-[4-[[7-[1-(Difluoromethyl)pyrazol-4-yl]-1,5-naphthyridin-4-yl]oxy]-3-fluorophenyl]-5-(4-fluorophenyl)-4-hydroxy-6-methylpyridine-3-carboxamide hydrochloride] |
| < 100 nM | > 300 nM | < 100 nM | COc1cc2ncnc(Oc3ccc(NC(=O)c4cn(C(C)C)cc(-c5ccc(F)cc5)c4=O)cc3F)c2nc1OC [Compound 636, N-[4-(6,7-dimethoxypyrido[3,2-d]pyrimidin-4-yl)oxy-3-fluorophenyl]-5-(4-fluorophenyl)-4-oxo-1-propan-2-ylpyridine-3-carboxamide] |
| 100 to 300 nM | 100 to 300 nM | > 300 nM | COC(=O)c1cnc2c(Oc3ccc(NC(=O)c4cnc(C)c(-c5ccc(F)cc5)c4O)cc3F)ccnc2c1 [Compound 138, Methyl 8-[2-fluoro-4-[[5-(4-fluorophenyl)-4-hydroxy-6-methylpyridine-3-carbonyl]amino]phenoxy]-1,5-naphthyridine-3-carboxylate] |
| < 100 nM | > 300 nM | < 100 nM | CCn1cc(C(=O)Nc2ccc(Oc3ccnc4cc(OC)cnc34)c(F)c2)c(=O)c(-c2ccc(F)cc2)c1 [Compound 170, 1-Ethyl-N-[3-fluoro-4-[(7-methoxy-1,5-naphthyridin-4-yl)oxy]phenyl]-5-(4-fluorophenyl)-4-oxopyridine-3-carboxamide] |
| < 100 nM | < 100 nM | < 100 nM | Cc1ncc(C(=O)Nc2ccc(Oc3ccnc4cnc(Cl)cc34)c(F)c2)c(O)c1-c1ccc(F)cc1 [Compound 641, N-[4-[(6-chloro-1,7-naphthyridin-4-yl)oxy]-3-fluorophenyl]-5-(4-fluorophenyl)-4-hydroxy-6-methylpyridine-3-carboxamide] |
| < 100 nM | < 100 nM | < 100 nM | COc1cc2c(Oc3ccc(NC(=O)c4cnc(C)c(-c5ccc(F)cc5)c4O)cc3)ccnc2cn1 [Compound 644, 5-(4-fluorophenyl)-4-hydroxy-N-[4-[(6-methoxy-1,7-naphthyridin-4-yl)oxy]phenyl]-6-methylpyridine-3-carboxamide] |
| < 100 nM | < 100 nM | < 100 nM | CCc1nc2c(Oc3ccc(NC(=O)c4cnc(C)c(-c5ccc(F)cc5)c4O)cc3F)ccnc2cc1OC [Compound 589, N-[4-[(6-Ethyl-7-methoxy-1,5-naphthyridin-4-yl)oxy]-3-fluorophenyl]-5-(4-fluorophenyl)-4-hydroxy-6-methylpyridine-3-carboxamide] |
| < 100 nM | < 100 nM | < 100 nM | COc1cc2nccc(Oc3ccc(NC(=O)c4cn(OC)cc(-c5ccc(F)cc5)c4=O)cc3F)c2nc1OC [Compound 126, N-[4-[(6,7-Dimethoxy-1,5-naphthyridin-4-yl)oxy]-3-fluorophenyl]-5-(4-fluorophenyl)-1-methoxy-4-oxopyridine-3-carboxamide] |
| < 100 nM | < 100 nM | < 100 nM | CCn1nc(C(=O)Nc2ccc(Oc3ccnc4cc(OC)c(OC)nc34)c(F)c2)c(=O)c(-c2ccc(F)cc2)c1C [Compound 568, N-[4-[(6,7-Dimethoxy-1,5-naphthyridin-4-yl)oxy]-3-fluorophenyl]-1-ethyl-5-(4-fluorophenyl)-6-methyl-4-oxopyridazine-3-carboxamide] |
